Experimental data published in US8729051B2, “Tri- and tetra-oligo-saccharides suitable as agglutination agents for enteric pathogens” (Nutrition Sciences N.V./S.A., priority 2006, dated 2014).

Columns and labels:
[1] = test system: E. coli K88 cells; test: Pathogen agglutination, microscopic analysis; assay type: cell-based; conditions: 0.025%, pH 7.0, 10 minutes; versus xylose, penta- and deca-xylo-oligo-saccharides
Method: Tri and/or tetra-manno-oligo-saccharides were incubated in liquid at a dose of 0.025% at pH 7.0 with E. coli K88 and Lactobacillus amylovorus cells for 10 minutes. After 10 minutes, agglutination was visualised by means of microscopic analysis.

[2] = Chicken performance (weight, feed conversion); assay type: in vivo, chickens; conditions: feed with 3 ppm flavomycin or 0.025% oligo-saccharides
Text: 3×40 one day old chickens were provided with following feeds: control feed, control feed supplemented with 3 ppm flavomycin and control feed supplemented with 0.025% tri- and/or tetra-manno-oligo-saccharides. The control feed was a mash feed, composed of raw materials suitable for animal nutrition. Water and feed were supplied ad libitum. The chickens were contaminated at day 2 with caecum contents of 3 week old chickens (most critical period for gastrointestinal problems). At regular time intervals, chickens were dissected and the enteric pathogen contents in the small intestine were determined by plate counting on MacConkey agar.
The same experimental conditions were applied as described in experiment 1. In this example, daily growth and feed conversion were monitored after 13 days.

Compound | agglutination, comparison of degree of polymerisation of xylo-oligo-saccharides [1] | Feed conversion/chicken ([2]; after 13 days) | Weight/chicken at day 1 ([2]; day 1) | Weight/chicken at day 13 ([2]; day 13)
OC1OC[C@@H](O[C@@H]2OC[C@@H](O[C@@H]3OC[C@@H](O)[C@H](O)[C@H]3O)[C@H](O)[C@H]2O)[C@H](O)[C@H]1O (some centres unmarked) [tri-xylo-oligo-saccharides] | best agglutination | – | – | –
flavomycin | – | 1.51 | 43.54 | 208.8
tetra-xylo-oligo-saccharides | best agglutination | – | – | –
